In patent US8450090B2, “Compositions and methods for promoting fatty acid production in plants” (The Regents of the University of Colorado, a body corporate, priority 2009, dated 2013):

How the values were obtained:
[1] = system: Schizochytrium; assay: Forward versus side scatter flow cytometry for oxamate-induced cell death; assay type: cell-based; details: at higher concentrations of oxamate, FIG. 3
Procedure: Schizochytrium or chlamydomonas were harvested, counted, and resuspended at 10^6 cells/100 μl of PBS containing 2.5% fetal calf serum in preparation for flow cytometric analysis. Lysosensor dyes were used to detect fatty acids in glyoxosomes or oil droplets. Mitochondrial membrane potential was assessed using Mitotracker Red (CM-H2XROS, BD Pharmingen). The cells were resuspended in PBS containing 2.5% fetal calf serum containing a final concentration of 0.5 micromolar Mitotracker dye. The cells were incubated at 37° for 20 minutes, washed twice in PBS containing 2.5% fetal calf serum and analyzed flow cytometrically. Data were acquired on a Coulter Excel flow cytometer (Coulter, Hialeah, Fla.) and analyzed with FloJo software. […] Each sample population was classified for cell size (forward scatter) and complexity (side scatter), gated on a population of interest and evaluated using 30,000 cells.
Percents: Gating is a tool provided by FloJo software and allows for the analysis of a certain population of cells. […] After the gates were drawn, a percent value of dead cells was calculated by taking the number of dead cells divided by the number of total cells and multiplying by one hundred.
The bar graph in FIG. 3 depicts the increase in geometric mean of fluorescence in the treated group minus the untreated. […]

[2] = system: cell wall UCP; details: wild type strains of C. reinhardtii; prior studies, U.S. Pat. No. 7,105,718; cited from earlier work

SMILES | percentage of cell death [1] | cell wall expression of UCP [2]
NC(=O)C(=O)O [Oxamate, oxamate] | significantly increased percentage of cell death | –
CNc1cnn(-c2cccc(C(F)(F)F)c2)c(=O)c1Cl [norflurazon] | – | did upregulate cell wall expression of UCP
